The source of these data is US9862693B2, “Compounds and methods of treating cancer” (The Regents of the University of California, priority 2012, dated 2018).

The structures appear in SMILES notation. Counter-ions that a name gives are not always drawn.

Type in all cases: cell-based
One experiment concerns A549. The experiment in a line: MTS cell number assay (CellTiter 96), NSCLC cells. The conditions noted are these: Homo sapiens, 1 mM, 72 hours, MTS method, read-out: Biodata extra A549, cell numbers as percentage of vehicle treated controls. As to the method:
(§1) FIGS. 3A-3B. Metformin analogues inhibit survival of non-small cell lung cancer (NSCLC) (FIG. 3A) and melanoma cell lines (FIG. 3B). A549 (NSCLC) and MDA-MB-435 (melanoma) cells were cultured in medium containing 1% fetal bovine serum and increasing concentrations of metformin (MET) and analogues JD001-JD007 (0.1, 1 and 5 mM). After 3 days, MTS assay was performed. Survival is expressed as percentage of control defined at 100%.
(§2) Cells were incubated in the presence of vehicle, metformin or metformin analogues for 72 hours in their respective media. After treatment cell numbers were determined with the MTS method using the CellTiter 96 Aqueous Non-Radioactive Cell Proliferation Assay (Promega). Numbers express percentage of vehicle treated controls at 1 mM concentration metformin or metformin analogues (JD001-JD009). TNBC: Triple Negative Breast Cancer Cells, ER+BC: Estrogen receptor positive breast cancer.
In general terms: Tetrazolium dyes change colour on reduction, which living cells bring about.

The subject of the next experiment is MDA-MB-435. The experiment in a line: MTS cell number assay (CellTiter 96), melanoma cells. The following applies: 1 mM, 72 hours, MTS method. As to the method:
as §1, §2

In another experiment the test system is HMEC. The experiment in a line: MTS cell number assay (CellTiter 96), normal cells. The conditions noted are these: Homo sapiens, 1 mM, 72 hours, MTS method, read-out: Biodata Normal HMEC, cell numbers as percentage of vehicle treated controls. As to the method:
(§3) FIGS. 4A-4B. Effects of metformin and metformin analogues on normal cells. HMEC (FIG. 4A) and HUVEC (FIG. 4B) cells were plated in special media. After 24 hours, cells were treated with increasing concentrations of metformin and analogues JD001-JD009 (0.1, 1 and 5 mM). After 3 days, MTS assay was performed. Survival is expressed as percentage of vehicle treated control. Data represents at least two experiments.
(§4) The effects of compounds described herein (including embodiments) (e.g. metformin analogues) were determined on two types of normal nonmalignant human cells, human umbilical vein endothelial cells (HUVEC) and human mammary epithelial cells (HMEC). There were no significant biologic effects noted on exposure to the metformin analogues.
as §2

Another experiment deals with HUVEC. The experiment in a line: MTS cell number assay (CellTiter 96), normal cells. The conditions noted are these: Homo sapiens, 1 mM, 72 hours, MTS method, read-out: Biodata Normal HUVEC, cell numbers as percentage of vehicle treated controls. The protocol: as §3, §4, §2
For the next experiment, the system named is HCC1937. The experiment in a line: MTS cell number assay (CellTiter 96), TNBC cells. The following applies: 1 mM, 72 hours, MTS method. The protocol: (§5) FIGS. 2A-2D. Metformin analogues inhibit growth/survival of triple negative breast cancer cells. MDA-MB-231 (FIG. 2A), HCC38 (FIG. 2B), HCC1937 (FIG. 2C) and HCC1806 (FIG. 2D) cells were cultured in medium containing 1% fetal bovine serum and increasing concentrations of metformin and analogues JD001-JD009 (0.1, 1 and 5 mM). After 3 days, MTS assay was performed. The percentage of surviving cells relative to controls, defined as 100% survival, was determined by the MTS assay.
as §2

In a further experiment the test system is MDA-MB-231. The experiment in a line: MTS cell number assay (CellTiter 96), TNBC cells. The following applies: Homo sapiens, 1 mM, 72 hours, MTS method, read-out: Biodata TNBC MDA-MB-231, cell numbers as percentage of vehicle treated controls. The protocol: as §5, §2
Another experiment concerns HCC1806. The experiment in a line: MTS cell number assay (CellTiter 96), TNBC cells. The following applies: 1 mM, 72 hours, MTS method. The protocol: as §5, §2
The test system of a further experiment is HCC38. The experiment in a line: MTS cell number assay (CellTiter 96), TNBC cells. The conditions noted are these: 1 mM, 72 hours, MTS method. The protocol:
as §5, §2

The subject of another experiment is MCF7. The experiment in a line: MTS cell number assay (CellTiter 96), ER+ breast cancer cells. The conditions noted are these: Homo sapiens, 1 mM, 72 hours, MTS method, read-out: ER+ BC MCF7, cell numbers as percentage of vehicle treated controls. The protocol: FIG. 1. Metformin analogues inhibit growth/survival of ER+ MCF7 breast cancer cells. MCF7 cells were cultured in medium containing different concentrations of metformin and analogues (0.1, 1 and 5 mM). After 3 days, the percentage of surviving cells relative to controls, defined as 100% survival, was determined by the MTS assay. Data represents three independent experiments.
Compounds described herein (e.g. metformin derivatives and/or analogues) were tested in human MCF-7 breast cancer cells, a standard ERalpha-positive model of breast malignancy (FIG. 1), and in four different cell lines classified as TNBC, including MDA-MB-231, HCC1937, HCC38 and HCC1806 (FIGS. 2A-2D). […] Experiments were also performed in: 1) a non-small cell lung cancer cell line that is known to be resistant to standard chemotherapy (A549); and 2) a melanoma-like cell model (MDA-MB-435). To find if analogues have effects on normal cells compounds were tested in two different types of cells, human umbilical vein endothelial cells (HUVEC) and human mammary epithelial cells (HMEC). The effects of metformin (MET) were compared with compounds JD001-JD009.
as §2

Consider `N=C(NC(=N)N1CCCC1)N1CCCCC1` [JD005, N-(Imino(pyrrolidin-1-yl)methyl)piperidine-1-carboximidamide hydrochloride], for which the viability at 1000 µM in the experiment with A549 was found to be 32.4%; in the experiment on HMEC it was 67.6%; in the experiment on HUVEC, 54.6%; in the experiment on MDA-MB-231 it was 46.6%; in the experiment with MCF7, 58.2%. In addition, the “Biodata extra MDA-MB-435, cell numbers as percentage of vehicle treated controls” value with MDA-MB-435 is recorded as 42.2 percentage of vehicle treated controls. For the same compound, the “Biodata TNBC HCC1937, cell numbers as percentage of vehicle treated controls” value with HCC1937 is recorded as 15.7 percentage of vehicle treated controls. Further, in the experiment on HCC1806, the “Biodata TNBC HCC1806, cell numbers as percentage of vehicle treated controls” value is listed as 55.8 percentage of vehicle treated controls. The “Biodata TNBC HCC38, cell numbers as percentage of vehicle treated controls” value in the experiment on HCC38 is recorded as 43.4 percentage of vehicle treated controls.
Turning to `CON(C)C(=N)NC(=N)N` [JD001, N-Methoxyl-N-methylbiguanide hydrochloride], the viability at 1000 µM with A549 worked out at 62.6%; in the experiment with HMEC it was 101%; with HUVEC it was 84.4%; with MDA-MB-231, 92%; in the experiment on MCF7 it was 82.3%. In addition, in the experiment on MDA-MB-435, the “Biodata extra MDA-MB-435, cell numbers as percentage of vehicle treated controls” value was 102.1 percentage of vehicle treated controls. Besides, in the experiment on HCC1937, the “Biodata TNBC HCC1937, cell numbers as percentage of vehicle treated controls” value was 68.9 percentage of vehicle treated controls. The “Biodata TNBC HCC1806, cell numbers as percentage of vehicle treated controls” value in the experiment with HCC1806 is given as 80.1 percentage of vehicle treated controls. For the same compound, the “Biodata TNBC HCC38, cell numbers as percentage of vehicle treated controls” value in the experiment on HCC38 is listed as 102.5 percentage of vehicle treated controls.
`N=C(NC(=N)N1CCCC1)N1CCCC1` [JD006, N-(Imino(pyrrolidin-1-yl)methyl)pyrrolidine-1-carboximidamide hydrochloride]: the viability at 1000 µM with A549 is 59.7%; with HMEC, 96.6%; in the experiment on HUVEC it was 113%; with MCF7, 59.7%.
In the case of `CC1CCN(C(=N)NC(=N)N)CC1` [JD009, N-Carbamimidoyl-4-methylpiperidine-1-carboximidamide, hydrochloride], the viability at 1000 µM was determined as 48.8% with HMEC, 39.5% in the experiment with HUVEC, 0.3% in the experiment on MDA-MB-231 and 52.7% in the experiment with MCF7. The “Biodata TNBC HCC1806, cell numbers as percentage of vehicle treated controls” value in the experiment with HCC1806 was 7.3 percentage of vehicle treated controls. Moreover, the “Biodata TNBC HCC38, cell numbers as percentage of vehicle treated controls” value in the experiment on HCC38 is given as 0 percentage of vehicle treated controls.
For `N=C(NC(=N)N1CCCCC1)N1CCCCC1` [JD002, N-(Imino(piperidin-1-yl)methyl)piperidine-1-carboximidamide hydrochloride], the viability at 1000 µM in the experiment with A549 was determined as 4.6%; with HMEC, 62.6%; with HUVEC it was 70%; in the experiment on MDA-MB-231, 48.5%; with MCF7, 46.2%. Moreover, in the experiment on MDA-MB-435, the “Biodata extra MDA-MB-435, cell numbers as percentage of vehicle treated controls” value is given as 39.8 percentage of vehicle treated controls. In the experiment with HCC1937, the “Biodata TNBC HCC1937, cell numbers as percentage of vehicle treated controls” value is 17.1 percentage of vehicle treated controls. The “Biodata TNBC HCC1806, cell numbers as percentage of vehicle treated controls” value with HCC1806 is reported as 36.4 percentage of vehicle treated controls. Besides, the “Biodata TNBC HCC38, cell numbers as percentage of vehicle treated controls” value in the experiment on HCC38 is 44.7 percentage of vehicle treated controls.
On to `CCCN(C)C(=N)NC(=N)N` [JD008, N-Methyl-N-propylbiguanide hydrochloride], for which the viability at 1000 µM was 70.9% in the experiment with HMEC, 37.7% with HUVEC, 38.6% in the experiment on MDA-MB-231 and 52.2% with MCF7. Besides, the “Biodata TNBC HCC1806, cell numbers as percentage of vehicle treated controls” value in the experiment on HCC1806 is 52.7 percentage of vehicle treated controls. In addition, in the experiment on HCC38, the “Biodata TNBC HCC38, cell numbers as percentage of vehicle treated controls” value is 55.6 percentage of vehicle treated controls.
With `CN(C)C(=N)NC(=N)N1CCOCC1` [JD007, N—(N,N-Dimethylcarbamimidoyl)morpholine-4-carboximidamide hydrochloride], the viability at 1000 µM was 82.3% in the experiment with A549; 105% in the experiment on HMEC; 112% with HUVEC; 64.3% in the experiment with MDA-MB-231; 65.8% with MCF7. In the experiment on HCC1806, the “Biodata TNBC HCC1806, cell numbers as percentage of vehicle treated controls” value is on record as 65.7 percentage of vehicle treated controls. Also, the “Biodata TNBC HCC38, cell numbers as percentage of vehicle treated controls” value in the experiment on HCC38 is 83.6 percentage of vehicle treated controls.
